According to PubChem BioAssay AID1963836 (Molecular Pharmacology Branch, DTP, NCI, 2024):
Several values for one entry are separate records, joined by “and”; a condition that tells them apart may be missing. Identical values can stand only once.

Tested on: 857933-349-R-J2-PDC complex spheroid viability
Experiment: Anticancer human tumor 857933-349-R-J2-PDC patient-derived colon adenocarcinoma cell line growth inhibition [POLQ]
Conditions: for viability, T/C: stronger effect = lower value
Description: Multicellular complex tumor spheroid response to Polymerase (POL) inhibitors (novobiocin, ART-558, RP6685) in combination with a variety of drugs and investigational agents in selected tumor cell lines
The POL inhibitors (novobiocin, ART-558, and RP6685) were evaluated both individually and in combination with standard of care and investigational anticancer small molecules within a complex spheroid model of solid tumors. . Complex spheroids include a stromal component modeled by human endothelial cells (HUVEC) and fibroblasts modeled by human mesenchymal stem cells (MSCs). The concentration ranges selected for each drug and investigational agent were based upon clinically achievable concentrations if the clinical Cmax of the agent was known.
Compounds. The drugs and investigational agents: novobiocin (NSC847541), ART-558 (NSC835418), RP-6685 (NSC848927), peposertib (NSC802822), ceralasertib (NSC780249), elimusertib (NSC800525), camonsertib (NSC841442), AZD-1390 (NSC803789), olaparib (NSC753686), talazoparib (NSC767125), rucaparib (NSC756644), sotorasib (NSC818433), MRTX-1133 (NSC836407), SN-38 (NSC673596), topotecan (NSC609699), epotoside (NSC141540), doxorubicin (NSC123127), gemcitabine (NSC613327), 5-fluorouracil (NSC19893), paclitaxel (NSC125973), vemurafenib (NSC761431), MSA-2 (NSC828583), SN-011 (NSC837082), adavosertib (NSC754352), prexasertib (NSC758257), carboplatin (NSC241240) and oxaliplatin (NSC266046), were obtained from the National Cancer Institute (NCI) Developmental Therapeutics Program Chemical Repository (21). The FDA-approved anticancer drug set is available from the Developmental Therapeutics Program at https://dtp.cancer.gov/organization/dscb/obtaining/. […] The stock solutions were prepared in dimethyl sulfoxide (DMSO, Sigma-Aldrich, St. Louis, MO, cat. D2650), except for the platinum compounds which were prepared in saline (Quality Biological, Gaithersburg, MD, cat. 114-055-101), at 800-fold the tested concentration and stored at -70 degrees C prior to their use. All drugs and investigational agents were tested over a range starting from a high concentration at or near the clinical Cmax and decreasing in half-log increments. If the clinical Cmax for an agent had not been determined, the highest concentration tested was 10 microM, except for SN-38, which was tested at a high concentration of 1 microM.
Cell Culture. All cells were maintained in an incubator at 37 degrees C and 5% CO2 with 95% humidity. The PDC lines were cultured according to standard operating procedures established by the NCI PDMR (https://pdmr.cancer.gov). Table 3 of the manuscript, lists the cell lines along with the number of the three cell types plated to form the mct-spheroids and media for tumor cell growth. After thawing, all PDC lines, except 997537-175-T-J1-PDC and 415267-285-R-J2-PDC, were cultured in Matrigel-coated flasks prepared with a working solution of 1X Ham's F-12 nutrient mix, without supplementation (Thermo Fisher Scientific, cat. 11765054), 100 U/mL penicillin-streptomycin (Thermo Fisher Scientific, cat. 15140122), and 2.5% Matrigel (Corning Inc., Corning, NY, cat. 354248) for the first three passages. The two PDC lines 997537-175-T-J1-PDC and 415267-285-R-J2-PDC were cultured on uncoated flasks. The 857933-349-R-J2-PDC line was cultured in 6C/Colon 1B media containing advanced DMEM/F-12 (Thermo Fisher Scientific, cat. 12634028), 10 mM HEPES (Thermo Fisher Scientific, cat. 15630080), 1X GlutaMAX supplement (Thermo Fisher Scientific, cat. 35050061), 0.1 mg/mL primocin (InvivoGen, San Diego, CA, cat. ant-pm-2), 10% defined fetal bovine serum, heat inactivated (HyClone Laboratories Inc., Logan, UT, cat. SH30070.03HI), 50% L-WRN conditioned media (ATCC, cat. CRL-3276), 1.25 mM N-Acetyl-L-cysteine (Sigma-Aldrich, cat. A9165), 10 mM nicotinamide (Sigma-Aldrich, cat. N0636), 1X B-27 supplement (Thermo Fisher Scientific, cat. 17504044), 1X N-2 supplement (Thermo Fisher Scientific, cat. […]

[1] = curve of first compound, second compound 0.0316 µM
[2] = curve of first compound, second compound 0.1 µM
[3] = curve of first compound, second compound 0.316 µM
[4] = curve of first compound, second compound 1 µM
[5] = curve of first compound, second compound 3.16 µM
[6] = curve of first compound, second compound 10 µM
[7] = second compound 0.0316 µM, first compound 0.0316 µM
[8] = second compound 0.0316 µM, first compound 0.1 µM
[9] = second compound 0.0316 µM, first compound 0.316 µM
[10] = second compound 0.0316 µM, first compound 1 µM
[11] = second compound 0.0316 µM, first compound 3.16 µM
[12] = second compound 0.0316 µM, first compound 10 µM
[13] = second compound 0.1 µM, first compound 0.0316 µM
[14] = second compound 0.1 µM, first compound 0.1 µM
[15] = second compound 0.1 µM, first compound 0.316 µM
[16] = second compound 0.1 µM, first compound 1 µM
[17] = second compound 0.1 µM, first compound 3.16 µM
[18] = second compound 0.1 µM, first compound 10 µM
[19] = second compound 0.316 µM, first compound 0.0316 µM
[20] = second compound 0.316 µM, first compound 0.1 µM
[21] = second compound 0.316 µM, first compound 0.316 µM
[22] = second compound 0.316 µM, first compound 1 µM
[23] = second compound 0.316 µM, first compound 3.16 µM
[24] = second compound 0.316 µM, first compound 10 µM
[25] = second compound 1 µM, first compound 0.0316 µM
[26] = second compound 1 µM, first compound 0.1 µM
[27] = second compound 1 µM, first compound 0.316 µM
[28] = second compound 1 µM, first compound 1 µM
[29] = second compound 1 µM, first compound 3.16 µM
[30] = second compound 1 µM, first compound 10 µM
[31] = second compound 3.16 µM, first compound 0.0316 µM
[32] = second compound 3.16 µM, first compound 0.1 µM
[33] = second compound 3.16 µM, first compound 0.316 µM
[34] = second compound 3.16 µM, first compound 1 µM
[35] = second compound 3.16 µM, first compound 3.16 µM
[36] = second compound 3.16 µM, first compound 10 µM
[37] = second compound 10 µM, first compound 0.0316 µM
[38] = second compound 10 µM, first compound 0.1 µM
[39] = second compound 10 µM, first compound 0.316 µM
[40] = second compound 10 µM, first compound 1 µM
[41] = second compound 10 µM, first compound 3.16 µM
[42] = second compound 10 µM, first compound 10 µM
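Also: spheroids exposed to compounds for seven days before readout.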

Structure (SMILES): CC1COCCN1c1cc(C2(O)CC3CCC(C2)O3)c2cnn(-c3ccn[nH]3)c2n1 (stereo not drawn) + Cc1cccc(N(C)C(=O)C2C(O)CCN2c2nc(C)cc(C(F)(F)F)c2C#N)c1
- IC50 [1]: 247 nM
- IC50 [2]: 365 nM
- IC50 [3]: 291 nM
- IC50 [4]: 202 nM
- IC50 [5]: 268 nM
- IC50 [6]: 231 nM
- viability, T/C [7]: 73.2%
- viability, T/C [8]: 56.1%
- viability, T/C [9]: 50.3%
- viability, T/C [10]: 41.7%
- viability, T/C [11]: 42.7%
- viability, T/C [12]: 43.6%
- viability, T/C [13]: 60.5%
- viability, T/C [14]: 62.9%
- viability, T/C [15]: 50.1%
- viability, T/C [16]: 38.3%
- viability, T/C [17]: 50.1%
- viability, T/C [18]: 59.1%
- viability, T/C [19]: 76.4%
- viability, T/C [20]: 69.9%
- viability, T/C [21]: 48.4%
- viability, T/C [22]: 45.9%
- viability, T/C [23]: 41.3%
- viability, T/C [24]: 48.7%
- viability, T/C [25]: 67.1%
- viability, T/C [26]: 59.5%
- viability, T/C [27]: 38.4%
- viability, T/C [28]: 43.4%
- viability, T/C [29]: 46.6%
- viability, T/C [30]: 47.5%
- viability, T/C [31]: 60.5%
- viability, T/C [32]: 62.5%
- viability, T/C [33]: 47.6%
- viability, T/C [34]: 41.1%
- viability, T/C [35]: 54.4%
- viability, T/C [36]: 49.3%
- viability, T/C [37]: 56.3%
- viability, T/C [38]: 55.9%
- viability, T/C [39]: 50.5%
- viability, T/C [40]: 36.9%
- viability, T/C [41]: 51.7%
- viability, T/C [42]: 40.1%

Structure (SMILES): C=CC(=O)N1CCN(c2nc(=O)n(-c3c(C)ccnc3C(C)C)c3nc(-c4c(O)cccc4F)c(F)cc23)C(C)C1 (stereo not drawn)
- viability, T/C (compound 0.0316 µM): 82% and 96.3% and 96.5%
- viability, T/C (compound 0.1 µM): 103% and 96.2% and 101%
- viability, T/C (compound 0.316 µM): 97.5% and 113% and 80.8%
- viability, T/C (compound 1 µM): 101% and 99.1% and 91.3%
- viability, T/C (compound 3.16 µM): 94.3% and 103% and 92.1%
- viability, T/C (compound 10 µM): 117% and 103% and 94.6%
- IC50 (curve of compound): > 10000 nM

Structure (SMILES): COc1cc(C2c3cc4c(cc3C(OC3OC5COC(C)OC5C(O)C3O)C3COC(=O)C23)OCO4)cc(OC)c1O (stereo not drawn)
- viability, T/C (compound 0.0316 µM): 74.7% and 90.5% and 74.8%
- viability, T/C (compound 0.1 µM): 74% and 67.4% and 84.9%
- viability, T/C (compound 0.316 µM): 51.1% and 65.9% and 54.1%
- viability, T/C (compound 1 µM): 60% and 59.9% and 55.7%
- viability, T/C (compound 3.16 µM): 38.2% and 33.4% and 32.9%
- viability, T/C (compound 10 µM): 24.6% and 24.7% and 27.6%
- IC50 (curve of compound): 1160 nM and 1190 nM and 955 nM

Structure (SMILES): COc1ccc([C@@H](O)c2cc(-c3ncnc4cc(N5CCOCC5)ccc34)c(F)cc2Cl)nn1 + Nc1ccc(C#CCN(C(=O)Cc2ncc(C(F)(F)F)cc2C(F)(F)F)c2ccc(F)cc2)nn1
- IC50 [1]: > 10000 nM
- IC50 [2]: > 10000 nM
- IC50 [3]: 9690 nM
- IC50 [4]: > 10000 nM
- IC50 [5]: > 10000 nM
- IC50 [6]: > 10000 nM
- viability, T/C [7]: 86.3%
- viability, T/C [8]: 104%
- viability, T/C [9]: 103%
- viability, T/C [10]: 92.6%
- viability, T/C [11]: 77.2%
- viability, T/C [12]: 56.2%
- viability, T/C [13]: 91.4%
- viability, T/C [14]: 100%
- viability, T/C [15]: 96.8%
- viability, T/C [16]: 84.3%
- viability, T/C [17]: 78.6%
- viability, T/C [18]: 60.8%
- viability, T/C [19]: 84.6%
- viability, T/C [20]: 91.2%
- viability, T/C [21]: 81.2%
- viability, T/C [22]: 94.7%
- viability, T/C [23]: 80.7%
- viability, T/C [24]: 48.7%
- viability, T/C [25]: 96.8%
- viability, T/C [26]: 89.3%
- viability, T/C [27]: 93.4%
- viability, T/C [28]: 76.6%
- viability, T/C [29]: 84.5%
- viability, T/C [30]: 59.6%
- viability, T/C [31]: 88.2%
- viability, T/C [32]: 95.8%
- viability, T/C [33]: 86.5%
- viability, T/C [34]: 84.1%
- viability, T/C [35]: 75.3%
- viability, T/C [36]: 60%
- viability, T/C [37]: 99.9%
- viability, T/C [38]: 89.8%
- viability, T/C [39]: 95.3%
- viability, T/C [40]: 76.3%
- viability, T/C [41]: 76.8%
- viability, T/C [42]: 51.6%
